# Test results reported in patent US5466677A, “Dinucleoside phosphinates and their pharmaceutical compositions” (Ciba-Geigy Corporation, priority 1993, dated 1995).
# Key:
# [1] = test system: human cytomegalovirus (HCMV) (strain AD 169); test: plaque-reduction assay, HCMV in human embryonic fibroblasts; assay type: cell-based; details: Human betaherpesvirus 5, Fibroblast; HCMV strain AD 169, human embryonic fibroblasts, 7 to 10 days
# Experimental: (§1) Compounds prepared in some of the previous Examples are tested for antiviral activity against herpes simplex virus type 1 (HSV-1) (strain 17i) and human cytomegalovirus (HCMV) (strain AD 169) in vitro. Aqueous solutions of the compounds are prepared at concentrations between 10 mM and 50 mM. The solutions are stored at -70° C. after preparation and thawed prior to use in the antiviral assays. After thawing, the solutions are diluted to the appropriate concentration in the cell-culturemedium without prior filtration.
# (§2) In a procedure similar to that described by Tyros et al, J. Antimicrob. Chemother., 8, 65-72 (1981), cell monolayers are infected with 20-200 plaque forming units and after virus adsorption the inoculum is replaced by maintenance medium containing different concentrations of the compound under investigation. Virus spread is prevented by the incorporation of 0.5% low gelling temperature agarose. At the end of a set period (2 or 3 days for HSV and 7 to 10 days for HCMV) monolayers are fixed, stained with methylene blue and plaque numbers determined.
# [2] = test system: herpes simplex virus type 1 (HSV-1) (strain 17i); test: plaque-reduction assay, HSV-1 in Vero cells; assay type: cell-based; details: Human alphaherpesvirus 1, 2 or 3 days
# Experimental: as §1, §2
# [3] = test system: complementary RNA sequences; assay type: binding; details: for Tm: pH 7; for ΔTm/mod: pH 7.0
molecule,measurement,setting,value
CCOP(=O)(CC[C@H]1O[C@@H](n2cc(C)c(=O)[nH]c2=O)C[C@@H]1OC(=O)c1ccccc1)C[C@H]1C[C@H](n2cc(C)c(=O)[nH]c2=O)O[C@@H]1CO[Si](c1ccccc1)(c1ccccc1)C(C)(C)C (stereo partly drawn) [Compound 13],IC50,[1],1 to 10 µM
same,IC50,[2],5 to 50 µM
CCOP(=O)(CC[C@H]1O[C@@H](n2cc(C)c(=O)[nH]c2=O)C[C@@H]1O)C[C@H]1C[C@H](n2cc(C)c(=O)[nH]c2=O)O[C@@H]1CO[Si](c1ccccc1)(c1ccccc1)C(C)(C)C (stereo partly drawn) [Compound 14],IC50,[1],> 200 µM
same,IC50,[2],20 to 200 µM
CCOP(=O)(CC[C@H]1O[C@@H](n2cc(C)c(=O)[nH]c2=O)C[C@@H]1OC(=O)c1ccccc1)C[C@H]1C[C@H](n2cc(C)c(=O)[nH]c2=O)O[C@@H]1CO (stereo partly drawn) [Compound 15],IC50,[1],> 2 µM
same,IC50,[2],> 5 µM
"Example 87: TTT T*TC TCT CTC TCT, T*T unit derived from Compound 81 (hydrolysed) (TTTTTCTCTCTCTCT; T*T modified dimer unit from Compound 81 (hydrolysed), chemistry not fully specified)",Tm,[3],45.7 °C
same,ΔTm/mod,[3],-2.8 °C
"Example 88: TTT T*TC TCT CTC TCT, T*T unit derived from Compound 81 (TTTTTCTCTCTCTCT; one T*T dimer with modified linkage from Compound 81, further chemistry not given here)",Tm,[3],46.8 °C
same,ΔTm/mod,[3],-2.2 °C
"Example 89: TTT T*TC TCT CTC TCT, T*T unit derived from Compound 81A (TTTTTCTCTCTCTCT; one T*T dimer with modified linkage from Compound 81A, further chemistry not given here)",Tm,[3],45.7 °C
same,ΔTm/mod,[3],-3.3 °C
"Example 90: TTT T*TC TCT CTC TCT, T*T unit derived from Compound 81B (TTTTTCTCTCTCTCT; one T*T dimer with modified linkage from Compound 81B, further chemistry not given here)",Tm,[3],47.2 °C
same,ΔTm/mod,[3],-1.3 °C
"Example 95: CTC GTA CT*T T*TC CGG TCC, T*T units derived from Compound 81 (hydrolysed) (CTCGTACTTTTCCGGTCC; two T*T dimers with modified linkage from hydrolysed Compound 81, further chemistry not given here)",Tm,[3],58.2 °C
same,ΔTm/mod,[3],-1.6 °C
"Example 96: CTC GTA CT*T T*TC CGG TCC, T*T units derived from Compound 81 (CTCGTACTTTTCCGGTCC; T*T modified units from Compound 81, chemistry not fully specified)",Tm,[3],58.5 °C
same,ΔTm/mod,[3],-1.5 °C
"Example 97: CTC GTA CT*T T*TC CGG TCC, T*T units derived from Compound 81A (CTCGTACTTTTCCGGTCC; T*T modified units from Compound 81A, chemistry not fully specified)",Tm,[3],57.9 °C
same,ΔTm/mod,[3],-1.8 °C
"Example 98: CTC GTA CT*T T*TC CGG TCC, T*T units derived from Compound 81B (CTCGTACTTTTCCGGTCC; T*T modified units from Compound 81B, chemistry not fully specified)",Tm,[3],58.8 °C
same,ΔTm/mod,[3],-1.3 °C
"Example 99: GCG T*TT *TT*T T*TT *TGC G, T*T indicating a unit derived from Compound 81 (hydrolysed) (GCGTTTTTTTTTTGCG; several T*T modified linkages from hydrolysed Compound 81, further chemistry not given here)",Tm,[3],39.6 °C
same,ΔTm/mod,[3],-1.8 °C
